Measured values reported in publication PMC9797722 (Frontiers in Veterinary Science, 2022).
Read-outs that look alike come from different tables or passages of the source.

Legend:
[1] = in vivo
[2] = humans, cited from earlier work
[3] = Canine, cited from earlier work
gastric pH = conditions: horses, cited from earlier work
[4] = Plasma pharmacokinetics of esomeprazole and esomeprazole sulfone in goats after IV and SC administration (HPLC, non-compartmental analysis); conditions: for C0: C0, goats; for MRT inf: MRTinf; for k el: λz; for Vd/F: Vz/F
[5] = design: method as in PMID 34631865; conditions: goats, intravenously or subcutaneously administered, all animals; cited from earlier work
[6] = system: pH of the third compartment; design: method as in PMID 20384953; conditions: alpacas, administered IV or SC; cited from earlier work
[7] = both, pygmy and pygmy-cross, plasma, iv, 1 mg/kg
[8] = both, pygmy and pygmy-cross, plasma, iv, 1 mg/kg, goats, 1 mg/kg IV single dose, geomean, n = 5
[9] = both, pygmy and pygmy-cross, plasma, iv, 1 mg/kg, goats, 1 mg/kg IV single dose, median, n = 5
[10] = both, pygmy and pygmy-cross, plasma, sc, 2 mg/kg
[11] = both, pygmy and pygmy-cross, plasma, sc, 2 mg/kg, goats, 2 mg/kg SC (SQ) single dose, geomean, n = 5
[12] = both, pygmy and pygmy-cross, plasma, sc, 2 mg/kg, goats, 2 mg/kg SC (SQ) single dose, median, n = 5
[13] = goats, 1 mg/kg IV single dose, plasma, geomean, n = 5
[14] = goats, 1 mg/kg IV single dose, plasma, median, n = 5
[15] = goats, 2 mg/kg SC (SQ) single dose, plasma, geomean, n = 5
[16] = goats, 2 mg/kg SC (SQ) single dose, plasma, median, n = 5

For COc1ccc2[nH]c(S(=O)(=O)Cc3ncc(C)c(OC)c3C)nc2c1 [Esomeprazole Sulfone, esomeprazole sulfone], the “time detectable in plasma” value [1] is listed as < 4 h, the “detection of sulfone metabolite in plasma” value ([1]; sc) is listed as “no detectable sulfone metabolite” and the “activity of the metabolite within the body” value [2] is listed as “not active”.
In the case of COc1ccc2nc([S@@+]([O-])Cc3ncc(C)c(OC)c3C)[nH]c2c1 [Esomeprazole, esomeprazole], the AUCinf ([3]; 1 mg/kg IV) is given as 3820 ng·h/mL, the AUClast ([3]; 1 mg/kg IV) is given as 3820 ng·h/mL and the Cl ([3]; 1 mg/kg IV) is given as 5 mL/min/kg. The “T1/2 (λz)” value ([3]; 1 mg/kg IV) was 43.8 min, the Vss ([3]; 1 mg/kg IV) was 0.27 L/kg and the AUCinf ([3]; 1 mg/kg SQ) was 4070 ng·h/mL. The AUClast ([3]; 1 mg/kg SQ) was 4070 ng·h/mL, the C0/Cmax ([3]; 1 mg/kg SQ) was 2620 ng/mL and the “F (bioavailability)” value ([3]; 1 mg/kg SQ) was 106%. For the same molecule, the “T1/2 (λz)” value ([3]; 1 mg/kg SQ) was 54 min, the “gastric pH raised to” value (gastric pH; administered intravenously) was ≥ 4 and the “tolerability of maintenance therapy” value ([2]; daily for up to 6 months) was “generally well-tolerated”. The “F (bioavailability)” value ([4]; Goat, 2 mg/kg SC vs 1 mg/kg IV, AUCSC/AUCIV x DoseIV/DoseSC) was 116%, the AUC(0-inf) [4, 7] was 440 ng·h/mL and the AUC(0-t) [4, 7] was 440 ng·h/mL. The C0 ([4]; both, pygmy and pygmy-cross, plasma, iv, 1 mg/kg, 1 mg/kg IV single dose, geomean, n = 5) was 2320 ng/mL, the C0 ([4]; both, pygmy and pygmy-cross, plasma, iv, 1 mg/kg, 1 mg/kg IV single dose, median, n = 5) was 2880 ng/mL and the Cmax ([4]; both, pygmy and pygmy-cross, plasma, iv, 1 mg/kg, C0/Cmax, Goat, 1 mg/kg IV (Table 3 comparison)) was 2320 ng/mL. It also gave a clearance ([4]; both, pygmy and pygmy-cross, plasma, iv, 1 mg/kg, Cl (plasma clearance), goats, 1 mg/kg IV single dose, geomean, n = 5) of 24.9 mL/min/kg, a clearance ([4]; both, pygmy and pygmy-cross, plasma, iv, 1 mg/kg, Cl (plasma clearance), goats, 1 mg/kg IV single dose, median, n = 5) of 21.9 mL/min/kg and a clearance ([4]; both, pygmy and pygmy-cross, plasma, iv, 1 mg/kg, Cl, Goat, 1 mg/kg IV (Table 3 comparison)) of 25 mL/min/kg. For the same molecule, the MRT inf [4, 8] was 9.19 min, the MRT inf [4, 9] was 8.41 min and the Vd ([4]; both, pygmy and pygmy-cross, plasma, iv, 1 mg/kg, Vss, Goat, 1 mg/kg IV (Table 3 comparison)) was 0.23 L/kg. It also gave a Vd ([4]; both, pygmy and pygmy-cross, plasma, iv, 1 mg/kg, Vz (volume of distribution), goats, 1 mg/kg IV single dose, geomean, n = 5) of 0.23 L/kg, a Vd ([4]; both, pygmy and pygmy-cross, plasma, iv, 1 mg/kg, Vz (volume of distribution), goats, 1 mg/kg IV single dose, median, n = 5) of 0.19 L/kg and a clearance ([4]; both, pygmy and pygmy-cross, plasma, iv, 1 mg/kg, clearance, goats, 1 mg/kg IV, not normalised to body weight) of 1050 mL/min. For the same molecule, the k el [4, 8] was 0.00183 s⁻¹, the k el [4, 9] was 0.00183 s⁻¹ and the AUC(0-inf) [4, 10] was 1030 ng·h/mL. It also gave an AUC(0-t) [4, 10] of 1020 ng·h/mL, a Cmax ([4]; both, pygmy and pygmy-cross, plasma, sc, 2 mg/kg, C0/Cmax, Goat, 2 mg/kg SQ (Table 3 comparison)) of 1040 ng/mL and a Cmax ([4]; both, pygmy and pygmy-cross, plasma, sc, 2 mg/kg, Cmax, goats, 2 mg/kg SC (SQ) single dose, geomean, n = 5) of 1040 ng/mL. For the same molecule, the Cmax ([4]; both, pygmy and pygmy-cross, plasma, sc, 2 mg/kg, Cmax, goats, 2 mg/kg SC (SQ) single dose, median, n = 5) was 1060 ng/mL, the bioavailability ([4]; both, pygmy and pygmy-cross, plasma, sc, 2 mg/kg, F (bioavailability), Goat, 2 mg/kg SC vs 1 mg/kg IV, AUCSC/AUCIV x DoseIV/DoseSC) was > 100% and the MRT inf [4, 11] was 51.7 min. For the same molecule, the MRT inf [4, 12] was 52.1 min, the half-life ([4]; both, pygmy and pygmy-cross, plasma, sc, 2 mg/kg, T1/2 (λz) elimination half-life, goats, 2 mg/kg SC (SQ) single dose, geomean, n = 5) was 29 min and the half-life ([4]; both, pygmy and pygmy-cross, plasma, sc, 2 mg/kg, T1/2 (λz) elimination half-life, goats, 2 mg/kg SC (SQ) single dose, median, n = 5) was 26.8 min. For the same molecule, the half-life ([4]; both, pygmy and pygmy-cross, plasma, sc, 2 mg/kg, T1/2 (λz), Goat, 2 mg/kg SQ) was 29.4 min, the Tmax ([4]; both, pygmy and pygmy-cross, plasma, sc, 2 mg/kg, Tmax, goats, 2 mg/kg SC (SQ) single dose, geomean, n = 5) was 22 min and the Tmax ([4]; both, pygmy and pygmy-cross, plasma, sc, 2 mg/kg, Tmax, goats, 2 mg/kg SC (SQ) single dose, median, n = 5) was 20 min. It also gave a Vd/F [4, 11] of 0.9 L/kg, a Vd/F [4, 12] of 0.78 L/kg and a k el [4, 11] of 0.0004 s⁻¹. For the same molecule, the k el [4, 12] was 0.000433 s⁻¹, the AUCinf [4, 13] was 442 ng·h/mL and the AUClast [4, 13] was 439 ng·h/mL. The AUMCinf [4, 13] was 244 min²·µg/mL, the AUCinf [4, 14] was 397 ng·h/mL and the AUClast [4, 14] was 394 ng·h/mL. For the same molecule, the AUMCinf [4, 14] was 222 min²·µg/mL, the AUCinf [4, 15] was 1030 ng·h/mL and the AUClast [4, 15] was 1020 ng·h/mL. The AUMCinf [4, 15] was 3200 min²·µg/mL, the Tmax ([4]; goats, 2 mg/kg SC (SQ) single dose, plasma, geomean, n = 5, 2 mg/kg) was 21.69 min and the AUCinf [4, 16] was 979 ng·h/mL. For the same molecule, the AUClast [4, 16] was 959 ng·h/mL, the AUMCinf [4, 16] was 3780 min²·µg/mL and the “plasma concentrations detected over time” value ([4]; goats, IV (1 mg/kg) and SC (2 mg/kg), any animal) was “not detected after 4 h”.
In the case of COc1ccc2[n-]c([S+]([O-])Cc3ncc(C)c(OC)c3C)nc2c1.COc1ccc2[n-]c([S+]([O-])Cc3ncc(C)c(OC)c3C)nc2c1.[Mg+2] (stereo not shown) [esomeprazole magnesium], the “gastric pH maintained” value (gastric pH; orally 60 or 80 mg, for up to 6 h post administration) is given as ≥ 5 and the adverse reactions (gastric pH; orally 60 or 80 mg) is given as “No adverse reactions were found”.
For COc1ccnc(C[S+]([O-])c2nc3ccc(OC(F)F)cc3[nH]2)c1OC (stereo not shown) [pantoprazole], the “plasma concentration detected over time” value [5] is given as “undetectable after 4 h” and the “effect on pH of the third compartment” value [6] is given as “significantly increased the pH of the third compartment”.
